Assays:
[1] = target: Cyclin-dependent kinase 4 (Homo sapiens) (UniProt P11802)
[2] = target: Serine/threonine-protein kinase 24 (Homo sapiens) (UniProt Q9Y6E0)
[3] = target: Cytoplasmic tyrosine-protein kinase BMX (Homo sapiens) (UniProt P51813)
[4] = target: Activin receptor type-1B (Homo sapiens) (UniProt P36896)
[5] = target: 3-phosphoinositide-dependent protein kinase 1 (Homo sapiens) (UniProt O15530)
[6] = target: Serine/threonine-protein kinase Sgk3 (Homo sapiens) (UniProt Q96BR1)
[7] = target: Serine/threonine-protein kinase 33 (Homo sapiens) (UniProt Q9BYT3)
Sequence of Serine/threonine-protein kinase 33 (Homo sapiens) (Q9BYT3 whole entry, looked up, the tested form may be a part): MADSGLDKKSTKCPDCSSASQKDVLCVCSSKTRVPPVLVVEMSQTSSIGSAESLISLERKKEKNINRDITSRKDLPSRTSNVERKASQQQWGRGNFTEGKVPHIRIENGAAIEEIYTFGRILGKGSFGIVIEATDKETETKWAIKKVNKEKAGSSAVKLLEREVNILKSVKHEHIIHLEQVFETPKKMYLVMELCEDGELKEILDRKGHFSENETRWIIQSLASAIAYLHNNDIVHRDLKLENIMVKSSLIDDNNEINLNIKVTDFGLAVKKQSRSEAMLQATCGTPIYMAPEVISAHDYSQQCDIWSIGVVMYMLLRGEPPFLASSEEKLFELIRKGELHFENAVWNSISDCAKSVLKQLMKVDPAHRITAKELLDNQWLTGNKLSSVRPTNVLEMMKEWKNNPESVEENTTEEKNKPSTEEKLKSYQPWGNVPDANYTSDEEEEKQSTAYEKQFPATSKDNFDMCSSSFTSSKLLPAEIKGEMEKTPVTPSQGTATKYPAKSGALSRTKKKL

[8] = target: Epithelial discoidin domain-containing receptor 1 (Homo sapiens) (UniProt Q08345)
[9] = target: Phosphatidylinositol 4-phosphate 3-kinase C2 domain-containing subunit beta (Homo sapiens) (UniProt O00750)
[10] = target: Cyclin-dependent kinase-like 2 (Homo sapiens) (UniProt Q92772)
Sequence of Cyclin-dependent kinase-like 2 (Homo sapiens) (Q92772 whole entry): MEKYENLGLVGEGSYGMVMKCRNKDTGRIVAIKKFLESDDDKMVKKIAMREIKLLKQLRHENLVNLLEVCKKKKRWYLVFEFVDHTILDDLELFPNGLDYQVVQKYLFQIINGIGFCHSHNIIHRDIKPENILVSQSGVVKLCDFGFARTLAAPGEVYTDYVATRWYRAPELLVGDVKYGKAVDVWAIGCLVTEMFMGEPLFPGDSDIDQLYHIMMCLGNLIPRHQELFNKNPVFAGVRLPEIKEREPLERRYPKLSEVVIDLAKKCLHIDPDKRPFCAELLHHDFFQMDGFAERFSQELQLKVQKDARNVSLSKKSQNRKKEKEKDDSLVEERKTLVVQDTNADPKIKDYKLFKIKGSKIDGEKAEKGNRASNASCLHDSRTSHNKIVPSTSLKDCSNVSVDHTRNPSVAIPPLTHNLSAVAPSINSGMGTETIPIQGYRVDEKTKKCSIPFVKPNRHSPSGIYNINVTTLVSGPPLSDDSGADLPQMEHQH

[11] = test system: Tyrosine-protein kinase ABL1 (Homo sapiens), P00519 [F317I]
[12] = target: Serine/threonine-protein kinase MARK1 (Homo sapiens, UniProt Q9P0L2)
[13] = target: Activin receptor type-2B (Homo sapiens) (UniProt Q13705)
[14] = test system: Mast/stem cell growth factor receptor Kit (Homo sapiens), P10721 [V559D,T670I]
Sequence of Mast/stem cell growth factor receptor Kit (Homo sapiens), P10721 [V559D,T670I] (P10721 whole entry V559D/T670I): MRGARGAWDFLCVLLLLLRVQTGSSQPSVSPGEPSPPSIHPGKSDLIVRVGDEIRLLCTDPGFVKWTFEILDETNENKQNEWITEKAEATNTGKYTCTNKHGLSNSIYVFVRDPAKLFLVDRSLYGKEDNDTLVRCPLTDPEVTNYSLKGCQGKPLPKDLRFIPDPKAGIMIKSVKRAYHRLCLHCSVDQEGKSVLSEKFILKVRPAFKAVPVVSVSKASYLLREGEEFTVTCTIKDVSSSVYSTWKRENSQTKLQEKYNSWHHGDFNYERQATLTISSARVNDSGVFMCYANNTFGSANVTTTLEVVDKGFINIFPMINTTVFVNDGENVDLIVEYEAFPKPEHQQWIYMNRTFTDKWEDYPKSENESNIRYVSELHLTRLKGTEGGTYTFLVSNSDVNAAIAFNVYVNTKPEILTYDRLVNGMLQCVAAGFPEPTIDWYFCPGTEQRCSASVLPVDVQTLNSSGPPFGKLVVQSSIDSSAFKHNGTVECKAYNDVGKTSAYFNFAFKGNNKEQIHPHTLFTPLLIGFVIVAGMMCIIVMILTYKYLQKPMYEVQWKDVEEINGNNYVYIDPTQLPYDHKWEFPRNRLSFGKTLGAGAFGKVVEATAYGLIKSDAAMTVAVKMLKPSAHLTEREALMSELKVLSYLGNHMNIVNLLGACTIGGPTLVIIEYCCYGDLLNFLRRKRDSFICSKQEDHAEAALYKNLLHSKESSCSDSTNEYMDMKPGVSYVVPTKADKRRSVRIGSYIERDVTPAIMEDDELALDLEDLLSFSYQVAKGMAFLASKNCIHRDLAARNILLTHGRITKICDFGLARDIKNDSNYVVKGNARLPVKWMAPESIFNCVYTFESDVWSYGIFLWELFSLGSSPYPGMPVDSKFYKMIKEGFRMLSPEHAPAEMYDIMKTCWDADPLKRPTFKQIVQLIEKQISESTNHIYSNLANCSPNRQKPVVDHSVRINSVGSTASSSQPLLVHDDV

[15] = target: Tyrosine-protein kinase Mer (Homo sapiens) (UniProt Q12866)
[16] = target: Mitogen-activated protein kinase kinase kinase 7 (Homo sapiens) (UniProt O43318)
[17] = target: Casein kinase I isoform gamma-1 (Homo sapiens) (UniProt Q9HCP0)
[18] = target: Serine/threonine-protein kinase SIK2 (Homo sapiens) (UniProt Q9H0K1)
[19] = target: Calcium/calmodulin-dependent protein kinase type IV (Homo sapiens) (UniProt Q16566)
[20] = target: D(1B) dopamine receptor (Homo sapiens) (UniProt P21918); settings: Compound concentration 10.0 uM
[21] = target: Interferon-induced, double-stranded RNA-activated protein kinase (Homo sapiens) (UniProt P19525)
[22] = target: Mitogen-activated protein kinase 6 (Homo sapiens) (UniProt Q16659)
[23] = target: Phosphatidylinositol 4,5-bisphosphate 3-kinase catalytic subunit gamma isoform (Homo sapiens) (UniProt P48736)
[24] = target: Bone morphogenetic protein receptor type-1B (Homo sapiens) (UniProt O00238)
[25] = target: T1, Inhibitor of nuclear factor kappa-B kinase subunit beta (Homo sapiens) (UniProt O14920)
T1 sequence (whole entry): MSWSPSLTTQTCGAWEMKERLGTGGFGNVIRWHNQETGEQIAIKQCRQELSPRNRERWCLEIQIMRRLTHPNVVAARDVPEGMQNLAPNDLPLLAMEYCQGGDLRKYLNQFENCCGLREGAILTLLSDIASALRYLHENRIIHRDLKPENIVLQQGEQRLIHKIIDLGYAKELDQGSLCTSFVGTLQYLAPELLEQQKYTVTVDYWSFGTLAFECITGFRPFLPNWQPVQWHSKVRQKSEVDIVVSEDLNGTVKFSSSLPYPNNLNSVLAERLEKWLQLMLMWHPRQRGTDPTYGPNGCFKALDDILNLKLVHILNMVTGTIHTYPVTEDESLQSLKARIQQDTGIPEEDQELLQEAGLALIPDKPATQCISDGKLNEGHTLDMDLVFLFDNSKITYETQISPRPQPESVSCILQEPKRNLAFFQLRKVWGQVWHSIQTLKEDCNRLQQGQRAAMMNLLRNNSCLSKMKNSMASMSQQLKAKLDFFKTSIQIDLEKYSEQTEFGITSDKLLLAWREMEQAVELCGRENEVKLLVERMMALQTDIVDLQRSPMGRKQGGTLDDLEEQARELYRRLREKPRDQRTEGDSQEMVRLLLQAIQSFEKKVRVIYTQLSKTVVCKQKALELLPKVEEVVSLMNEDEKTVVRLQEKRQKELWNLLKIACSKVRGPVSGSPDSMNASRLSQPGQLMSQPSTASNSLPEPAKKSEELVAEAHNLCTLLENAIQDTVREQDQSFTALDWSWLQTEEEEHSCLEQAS

[26] = target: Serine/threonine-protein kinase RIO1 (Homo sapiens) (UniProt Q9BRS2)
[27] = target: Vascular endothelial growth factor receptor 3 (Homo sapiens) (UniProt P35916)
Sequence of Vascular endothelial growth factor receptor 3 (Homo sapiens) (P35916 whole entry): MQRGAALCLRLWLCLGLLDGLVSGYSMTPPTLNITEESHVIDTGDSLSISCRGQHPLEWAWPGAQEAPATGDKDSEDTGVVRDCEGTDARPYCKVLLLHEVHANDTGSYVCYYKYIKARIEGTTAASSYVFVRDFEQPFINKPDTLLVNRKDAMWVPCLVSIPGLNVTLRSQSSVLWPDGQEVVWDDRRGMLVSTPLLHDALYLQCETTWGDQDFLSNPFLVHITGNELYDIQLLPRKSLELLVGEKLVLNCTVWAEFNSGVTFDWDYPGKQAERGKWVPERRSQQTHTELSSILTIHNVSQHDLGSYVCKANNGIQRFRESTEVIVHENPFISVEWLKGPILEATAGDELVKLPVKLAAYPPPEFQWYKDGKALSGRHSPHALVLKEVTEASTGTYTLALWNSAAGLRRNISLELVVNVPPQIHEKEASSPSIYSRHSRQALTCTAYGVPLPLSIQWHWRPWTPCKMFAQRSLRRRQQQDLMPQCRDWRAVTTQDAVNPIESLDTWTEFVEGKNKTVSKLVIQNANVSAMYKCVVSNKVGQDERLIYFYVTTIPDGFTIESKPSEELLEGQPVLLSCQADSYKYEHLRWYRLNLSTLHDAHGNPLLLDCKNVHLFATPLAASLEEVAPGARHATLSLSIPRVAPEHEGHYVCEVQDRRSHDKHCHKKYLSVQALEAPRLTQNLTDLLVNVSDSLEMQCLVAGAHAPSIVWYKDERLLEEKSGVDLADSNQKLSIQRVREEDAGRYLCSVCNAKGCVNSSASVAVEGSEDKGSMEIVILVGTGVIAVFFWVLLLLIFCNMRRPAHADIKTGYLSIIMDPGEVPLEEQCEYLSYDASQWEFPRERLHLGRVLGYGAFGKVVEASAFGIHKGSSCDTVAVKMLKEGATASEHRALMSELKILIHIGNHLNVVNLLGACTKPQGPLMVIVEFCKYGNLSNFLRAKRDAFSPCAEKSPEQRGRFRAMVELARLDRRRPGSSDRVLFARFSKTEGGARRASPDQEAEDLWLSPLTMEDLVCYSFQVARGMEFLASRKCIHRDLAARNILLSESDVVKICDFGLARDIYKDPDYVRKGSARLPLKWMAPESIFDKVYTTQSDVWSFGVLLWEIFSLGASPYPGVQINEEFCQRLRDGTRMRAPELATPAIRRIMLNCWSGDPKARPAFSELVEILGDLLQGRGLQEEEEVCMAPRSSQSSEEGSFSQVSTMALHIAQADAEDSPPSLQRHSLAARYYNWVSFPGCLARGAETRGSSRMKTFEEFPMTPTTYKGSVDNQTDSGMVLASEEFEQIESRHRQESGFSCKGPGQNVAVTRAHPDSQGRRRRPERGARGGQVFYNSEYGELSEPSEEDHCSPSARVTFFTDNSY

[28] = target: Serine/threonine-protein kinase ULK1 (Homo sapiens) (UniProt O75385)
[29] = target: Serine/threonine-protein kinase TBK1 (Homo sapiens) (UniProt Q9UHD2)
[30] = target: Cyclin-dependent kinase 3 (Homo sapiens) (UniProt Q00526)
[31] = target: Tyrosine-protein kinase Fer (Homo sapiens) (UniProt P16591)
[32] = target: Ribosomal protein S6 kinase alpha-2 (Homo sapiens) (UniProt Q15349)
[33] = test system: Tyrosine-protein kinase ABL1 (Homo sapiens), P00519 [Q252H]
[34] = target: Serine/threonine-protein kinase PknB (Mycobacterium tuberculosis) (UniProt P9WI81)
Sequence of Serine/threonine-protein kinase PknB (Mycobacterium tuberculosis) (P9WI81 whole entry): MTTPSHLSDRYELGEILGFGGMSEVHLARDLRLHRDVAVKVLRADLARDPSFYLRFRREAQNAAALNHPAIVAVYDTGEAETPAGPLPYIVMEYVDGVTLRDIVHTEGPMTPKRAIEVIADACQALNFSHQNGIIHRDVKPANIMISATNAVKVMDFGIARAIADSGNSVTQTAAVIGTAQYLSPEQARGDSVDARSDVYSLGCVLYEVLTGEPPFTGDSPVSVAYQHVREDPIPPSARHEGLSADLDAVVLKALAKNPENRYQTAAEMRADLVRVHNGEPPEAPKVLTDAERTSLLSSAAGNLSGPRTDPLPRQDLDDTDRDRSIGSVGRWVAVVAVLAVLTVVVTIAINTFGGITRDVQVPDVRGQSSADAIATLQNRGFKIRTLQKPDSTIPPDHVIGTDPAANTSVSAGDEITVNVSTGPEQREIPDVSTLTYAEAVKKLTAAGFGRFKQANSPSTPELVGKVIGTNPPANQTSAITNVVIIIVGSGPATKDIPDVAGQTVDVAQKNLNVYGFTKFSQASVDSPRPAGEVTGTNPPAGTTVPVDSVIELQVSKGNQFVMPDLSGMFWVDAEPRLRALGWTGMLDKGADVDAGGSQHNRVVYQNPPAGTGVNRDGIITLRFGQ

[35] = target: Cyclin-dependent kinase 8 (Homo sapiens) (UniProt P49336)
[36] = Compound concentration 100.0 nM
[37] = Compound concentration 1000.0 nM

Sequence of Serine/threonine-protein kinase 24 (Homo sapiens) (Q9Y6E0 whole entry, looked up): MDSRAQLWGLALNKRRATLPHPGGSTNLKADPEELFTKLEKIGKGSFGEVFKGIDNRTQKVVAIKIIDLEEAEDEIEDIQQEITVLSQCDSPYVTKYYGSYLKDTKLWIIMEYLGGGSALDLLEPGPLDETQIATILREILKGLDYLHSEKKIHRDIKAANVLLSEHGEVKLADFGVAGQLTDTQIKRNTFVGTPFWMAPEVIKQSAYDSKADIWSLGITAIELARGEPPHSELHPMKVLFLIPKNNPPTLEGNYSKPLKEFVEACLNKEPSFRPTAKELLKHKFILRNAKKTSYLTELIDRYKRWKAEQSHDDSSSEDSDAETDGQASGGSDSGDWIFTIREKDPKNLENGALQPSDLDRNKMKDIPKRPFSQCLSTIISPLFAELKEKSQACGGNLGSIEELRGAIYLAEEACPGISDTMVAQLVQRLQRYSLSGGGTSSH
Sequence of Serine/threonine-protein kinase Sgk3 (Homo sapiens) (Q96BR1 whole entry): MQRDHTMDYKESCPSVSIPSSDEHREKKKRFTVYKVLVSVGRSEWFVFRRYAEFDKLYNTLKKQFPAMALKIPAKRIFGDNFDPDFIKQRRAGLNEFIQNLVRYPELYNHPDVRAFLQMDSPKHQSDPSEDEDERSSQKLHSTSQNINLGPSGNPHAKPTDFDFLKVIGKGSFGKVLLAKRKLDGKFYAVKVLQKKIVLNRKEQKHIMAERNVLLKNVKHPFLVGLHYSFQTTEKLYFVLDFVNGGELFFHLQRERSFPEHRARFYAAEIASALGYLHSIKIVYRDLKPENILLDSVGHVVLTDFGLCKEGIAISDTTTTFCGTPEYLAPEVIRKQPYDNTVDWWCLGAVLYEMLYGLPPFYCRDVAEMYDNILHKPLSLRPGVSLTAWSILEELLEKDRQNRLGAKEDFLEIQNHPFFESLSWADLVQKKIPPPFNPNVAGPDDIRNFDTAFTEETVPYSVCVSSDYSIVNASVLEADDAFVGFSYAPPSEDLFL

CNC(=O)c1ccc(Nc2ncc(C(F)(F)F)c(NCc3nccnc3N(C)S(C)(=O)=O)n2)cc1 [DEFACTINIB]
residual activity [1, 36]: 100% | residual activity [2, 36]: 54% | residual activity [3, 36]: 71% | residual activity [4, 36]: 69% | residual activity [5, 36]: 81% | residual activity [6, 36]: 85% | residual activity [7, 36]: 68% | residual activity [8, 36]: 100% | residual activity [9, 36]: 87% | residual activity [10, 36]: 79% | residual activity [11, 36]: 100% | residual activity [12, 36]: 100% | residual activity [13, 36]: 100% | residual activity [14, 36]: 100% | residual activity [15, 36]: 54% | residual activity [16, 36]: 57% | residual activity [17, 36]: 82% | residual activity [18, 36]: 100% | residual activity [19, 36]: 100% | inhibition [20]: -7.46% | residual activity [21, 36]: 100% | residual activity [22, 36]: 71% | residual activity [23, 36]: 100% | residual activity [24, 36]: 65% | residual activity [25, 36]: 100% | residual activity [26, 36]: 100% | residual activity [27, 36]: 39% | residual activity [28, 36]: 47% | residual activity [29, 36]: 75% | residual activity [30, 36]: 100% | residual activity [31, 36]: 83% | residual activity [32, 36]: 61% | residual activity [33, 36]: 100% | residual activity [34, 36]: 69% | residual activity [35, 36]: 50%

CN(c1ccnc(CNc2nc(Nc3ccc4c(c3)CC(=O)N4)ncc2C(F)(F)F)n1)S(C)(=O)=O [PF-00911705]
residual activity [1, 37]: 63% | residual activity [2, 37]: 93% | residual activity [3, 37]: 80% | residual activity [4, 37]: 26% | residual activity [5, 37]: 54% | residual activity [6, 37]: 87% | residual activity [7, 37]: 15% | residual activity [8, 37]: 80% | residual activity [9, 37]: 79% | residual activity [10, 37]: 84% | residual activity [11, 37]: 100% | residual activity [12, 37]: 77% | residual activity [13, 37]: 73% | residual activity [14, 37]: 100% | residual activity [15, 37]: 21% | residual activity [16, 37]: 48% | residual activity [17, 37]: 100% | residual activity [18, 37]: 41% | residual activity [19, 37]: 100% | inhibition [20]: -0.97% | residual activity [21, 37]: 82% | residual activity [22, 37]: 66% | residual activity [23, 37]: 100% | residual activity [24, 37]: 3.6% | residual activity [25, 37]: 78% | residual activity [26, 37]: 9.7% | residual activity [27, 37]: 92% | residual activity [28, 37]: 1.2% | residual activity [29, 37]: 21% | residual activity [30, 37]: 90% | residual activity [31, 37]: 78% | residual activity [32, 37]: 95% | residual activity [33, 37]: 49% | residual activity [34, 37]: 80% | residual activity [35, 37]: 97%
